Source: US20080249105A1, “Pyrrolopyridine-Substituted Benzol Derivatives for Treating Cardiovascular Diseases” (Bayer Healthcare AG, priority 2003, published 2008)

These compounds were tested against T1, Rho kinase II (ROKα) (Rattus norvegicus, UniProt Q62868) (assay: Inhibition of recombinant Rho kinase II (ROKα), 33P phosphate uptake into S6 substrate peptide). Conditions: recombinant Rho kinase II (Upstate Biotechnology), S6 phosphate-acceptor peptide, 33P-labelled ATP, 20 min at 37° C.
T1 construct: purchased Upstate Biotechnology
Assay type: biochemical
Experimental: The inhibition of the enzyme is investigated in an in vitro assay with recombinant Rho kinase II. The vessel-relaxing action is determined using phenylephrin-induced contractions of isolated rings of the saphenous artery of rabbits.
Inhibition of Recombinant Rho Kinase II (ROKα)
The activity of Rho kinase is determined by the uptake of ^33P phosphate into a substrate peptide. To this end, commercially available Rho kinase II (Upstate Biotechnology) is pre-incubated at 37° C. in the presence of the S6 phosphate-acceptor peptide with the test substances or a solvent control for 10 min. The kinase reaction is then started by addition of ^33P-labelled ATP. After 20 min at 37° C., the reaction is stopped by addition of H3PO4. Aliquots are pipetted onto filters and the filters are washed and then covered with scintillator. The radioactivity of the ^33P-labelled peptides bound to the filter is measured in a Micro-Beta counter. The IC50 value corresponds to the concentration of a test substance at which the Rho-kinase-catalysed uptake of ^33P into the peptide is inhibited by 50%, compared to a solvent control.

T1 sequence (Q62868 whole entry): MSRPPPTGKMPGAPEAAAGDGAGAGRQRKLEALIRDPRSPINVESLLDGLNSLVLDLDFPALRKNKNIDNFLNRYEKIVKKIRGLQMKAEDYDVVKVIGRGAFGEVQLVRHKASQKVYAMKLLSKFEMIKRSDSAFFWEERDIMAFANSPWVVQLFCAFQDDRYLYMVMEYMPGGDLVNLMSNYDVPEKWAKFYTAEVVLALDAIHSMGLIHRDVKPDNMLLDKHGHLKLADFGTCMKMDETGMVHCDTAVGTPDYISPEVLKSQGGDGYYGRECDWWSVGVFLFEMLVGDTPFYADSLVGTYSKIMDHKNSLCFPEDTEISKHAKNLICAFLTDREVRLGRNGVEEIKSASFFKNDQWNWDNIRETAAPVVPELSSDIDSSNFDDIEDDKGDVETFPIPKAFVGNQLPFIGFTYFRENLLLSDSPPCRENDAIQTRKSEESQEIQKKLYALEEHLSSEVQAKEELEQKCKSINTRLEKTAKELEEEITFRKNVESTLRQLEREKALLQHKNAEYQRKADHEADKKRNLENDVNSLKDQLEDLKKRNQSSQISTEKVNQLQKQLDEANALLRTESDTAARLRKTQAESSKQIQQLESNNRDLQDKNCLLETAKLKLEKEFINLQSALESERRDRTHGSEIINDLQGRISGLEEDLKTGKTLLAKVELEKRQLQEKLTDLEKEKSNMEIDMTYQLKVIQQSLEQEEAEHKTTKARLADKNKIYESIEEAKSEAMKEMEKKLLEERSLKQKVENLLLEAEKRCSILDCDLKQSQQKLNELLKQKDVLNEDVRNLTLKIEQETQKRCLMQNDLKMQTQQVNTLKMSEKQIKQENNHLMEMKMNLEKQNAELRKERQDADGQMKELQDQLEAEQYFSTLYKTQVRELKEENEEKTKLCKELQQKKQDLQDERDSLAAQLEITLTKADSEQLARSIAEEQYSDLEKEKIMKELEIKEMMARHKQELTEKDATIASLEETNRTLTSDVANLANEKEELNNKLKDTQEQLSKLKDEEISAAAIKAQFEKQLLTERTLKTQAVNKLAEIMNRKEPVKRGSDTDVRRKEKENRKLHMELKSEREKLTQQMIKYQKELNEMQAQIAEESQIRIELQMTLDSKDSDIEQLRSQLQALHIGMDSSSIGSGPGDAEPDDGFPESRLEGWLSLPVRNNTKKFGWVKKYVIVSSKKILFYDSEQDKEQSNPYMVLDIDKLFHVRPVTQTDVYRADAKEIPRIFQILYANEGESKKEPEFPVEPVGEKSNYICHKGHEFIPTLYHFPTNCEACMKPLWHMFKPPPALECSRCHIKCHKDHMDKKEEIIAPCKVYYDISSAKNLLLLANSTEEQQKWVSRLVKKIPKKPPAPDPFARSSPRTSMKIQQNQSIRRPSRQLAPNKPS

| Compound | IC50 |
| --- | --- |
| CC(C)(C)NCc1ccc(C(=O)Nc2ccc(Oc3ccnc4[nH]ccc34)c(F)c2)cc1 [Example 15] | 49 nM |
| Cc1c[nH]c2nccc(Oc3ccc(NC(=O)CNC(C)(C)C)cc3F)c12 [Example 23] | 12 nM |
| CN(C)CCNC(=O)Nc1ccc(Oc2ccnc3[nH]ccc23)c(F)c1 [Example 40] | 27 nM |
| CN(C)CCOC(=O)Nc1ccc(Oc2ccnc3[nH]ccc23)c(F)c1 [Example 41] | 20 nM |
